Data as given in patent US8063048B2, “Acetylenyl-pyrazolo-pyrimidine derivatives” (Hoffmann-La Roche Inc., priority 2005, dated 2011).

melting point	SMILES
219 °C	O=S(=O)(NCCN1CCOCC1)c1ccc(C#Cc2cnn3c(C(F)(F)F)cc(-c4ccc(C(F)(F)F)cc4)nc23)s1 [Example 158, 5-[7-Trifluoromethyl-5-(4-trifluoromethyl-phenyl)-pyrazolo[1,5-a]pyrimidin-3-ylethynyl]-thiophene-2-sulfonic acid (2-morpholin-4-yl-ethyl)-amide]
178 °C	CN(C)CCNS(=O)(=O)c1ccc(C#Cc2cnn3c(C(F)(F)F)cc(-c4ccc(C(F)(F)F)cc4)nc23)s1 [Example 159, 5-[7-Trifluoromethyl-5-(4-trifluoromethyl-phenyl)-pyrazolo[1,5-a]pyrimidin-3-ylethynyl]-thiophene-2-sulfonic acid (2-dimethylamino-ethyl)-amide]
225 °C	NS(=O)(=O)c1ccc(C#Cc2cnn3c(C(F)F)cc(-c4cccc(C(F)(F)F)c4)nc23)s1 [Example 160, 5-[7-Difluoromethyl-5-(3-trifluoromethyl-phenyl)-pyrazolo[1,5-a]pyrimidin-3-ylethynyl]-thiophene-2-sulfonic acid amide]
201 °C	CC(C)(C)NS(=O)(=O)c1ccc(C#Cc2cnn3c(C(F)F)cc(-c4cccc(C(F)(F)F)c4)nc23)s1 [Example 161, 5-[7-Difluoromethyl-5-(3-trifluoromethyl-phenyl)-pyrazolo[1,5-a]pyrimidin-3-ylethynyl]-thiophene-2-sulfonic acid tert-butylamide]
137 °C	O=S(=O)(c1ccc(C#Cc2cnn3c(C(F)(F)F)cc(-c4ccc(C(F)(F)F)cc4)nc23)s1)N(CCO)CCO [Example 162, 5-[7-Trifluoromethyl-5-(4-trifluoromethyl-phenyl)-pyrazolo[1,5-a]pyrimidin-3-ylethynyl]-thiophene-2-sulfonic acid bis-(2-hydroxy-ethyl)-amide]
247 °C	O=S(=O)(NC(CO)CO)c1ccc(C#Cc2cnn3c(C(F)(F)F)cc(-c4ccc(C(F)(F)F)cc4)nc23)s1 [Example 163, 5-[7-Trifluoromethyl-5-(4-trifluoromethyl-phenyl)-pyrazolo[1,5-a]pyrimidin-3-ylethynyl]-thiophene-2-sulfonic acid (2-hydroxy-1-hydroxymethyl-ethyl)-amide]
210 °C	NS(=O)(=O)c1ccc(C#Cc2cnn3c(C(F)F)cc(-c4ccc(C(F)(F)F)cc4)nc23)s1 [Example 164, 5-[7-Difluoromethyl-5-(4-trifluoromethyl-phenyl)-pyrazolo[1,5-a]pyrimidin-3-ylethynyl]-thiophene-2-sulfonic acid amide]
187 °C	CC(C)(C)NS(=O)(=O)c1ccc(C#Cc2cnn3c(C(F)F)cc(-c4ccc(C(F)(F)F)cc4)nc23)s1 [Example 165, 5-[7-Difluoromethyl-5-(4-trifluoromethyl-phenyl)-pyrazolo[1,5-a]pyrimidin-3-ylethynyl]-thiophene-2-sulfonic acid tert-butylamide]
277 °C	NS(=O)(=O)c1cc(C#Cc2cnn3c(C(F)F)cc(-c4cccc(C(F)(F)F)c4)nc23)c(F)cc1F [Example 166, 5-[7-Difluoromethyl-5-(3-trifluoromethyl-phenyl)-pyrazolo[1,5-a]pyrimidin-3-ylethynyl]-2,4-difluoro-benzenesulfonamide]
199 °C	NS(=O)(=O)c1cccc(C#Cc2cnn3c(C(F)F)cc(-c4cccc(C(F)(F)F)c4)nc23)c1 [Example 167, 3-[7-Difluoromethyl-5-(3-trifluoromethyl-phenyl)-pyrazolo[1,5-a]pyrimidin-3-ylethynyl]-benzenesulfonamide]
215 °C	Cc1cc(-c2cc(C(F)F)n3ncc(C#Cc4cccc(S(N)(=O)=O)c4)c3n2)ccc1Cl [Example 168, 3-[5-(4-Chloro-3-methyl-phenyl)-7-difluoromethyl-pyrazolo[1,5-a]pyrimidin-3-ylethynyl]-benzenesulfonamide]
157 °C	CC(C)(CO)NS(=O)(=O)c1ccc(C#Cc2cnn3c(C(F)F)cc(-c4ccc(C(F)(F)F)cc4)nc23)s1 [Example 169, 5-[7-Difluoromethyl-5-(4-trifluoromethyl-phenyl)-pyrazolo[1,5-a]pyrimidin-3-ylethynyl]-thiophene-2-sulfonic acid (2-hydroxy-1,1-dimethyl-ethyl)-amide]
168 °C	CC(C)(CO)NS(=O)(=O)c1ccc(C#Cc2cnn3c(C(F)F)cc(-c4cccc(C(F)(F)F)c4)nc23)s1 [Example 170, 5-[7-Difluoromethyl-5-(3-trifluoromethyl-phenyl)-pyrazolo[1,5-a]pyrimidin-3-ylethynyl]-thiophene-2-sulfonic acid (2-hydroxy-1,1-dimethyl-ethyl)-amide]
220 °C	Cc1cc(-c2cc(C(F)F)n3ncc(C#Cc4ccc(S(=O)(=O)NC(C)(C)C)s4)c3n2)ccc1Cl [Example 171, 5-[5-(4-Chloro-3-methyl-phenyl)-7-difluoromethyl-pyrazolo[1,5-a]pyrimidin-3-ylethynyl]-thiophene-2-sulfonic acid tert-butylamide]
216 °C	Cc1cc(-c2cc(C(F)F)n3ncc(C#Cc4ccc(S(N)(=O)=O)s4)c3n2)ccc1Cl [Example 172, 5-[5-(4-Chloro-3-methyl-phenyl)-7-difluoromethyl-pyrazolo[1,5-a]pyrimidin-3-ylethynyl]-thiophene-2-sulfonic acid amide]
237 °C	Cc1cc(-c2cc(C(F)F)n3ncc(C#Cc4ccc(S(N)(=O)=O)cc4)c3n2)ccc1Cl [Example 173, 4-[5-(4-Chloro-3-methyl-phenyl)-7-difluoromethyl-pyrazolo[1,5-a]pyrimidin-3-ylethynyl]-benzenesulfonamide]
270 °C	Cc1cc(-c2cc(C(F)F)n3ncc(C#Cc4cc(S(N)(=O)=O)c(F)cc4F)c3n2)ccc1Cl [Example 174, 5-[5-(4-Chloro-3-methyl-phenyl)-7-difluoromethyl-pyrazolo[1,5-a]pyrimidin-3-ylethynyl]-2,4-difluoro-benzenesulfonamide]
145 °C	Cc1cc(-c2cc(C(F)F)n3ncc(C#Cc4ccc(S(=O)(=O)NC(C)(C)CO)s4)c3n2)ccc1Cl [Example 175, 5-[5-(4-Chloro-3-methyl-phenyl)-7-difluoromethyl-pyrazolo[1,5-a]pyrimidin-3-ylethynyl]-thiophene-2-sulfonic acid (2-hydroxy-1,1-dimethyl-ethyl)-amide]
245 °C	NS(=O)(=O)c1ccc(C#Cc2cnn3c(C(F)F)cc(-c4cccc(C(F)(F)F)c4)nc23)cc1 [Example 176, 4-[7-Difluoromethyl-5-(3-trifluoromethyl-phenyl)-pyrazolo[1,5-a]pyrimidin-3-ylethynyl]-benzenesulfonamide]
247 °C	NS(=O)(=O)c1cc(C#Cc2ncn3c(C(F)(F)F)cc(-c4ccc(C(F)(F)F)cc4)nc23)c(F)cc1F [Example 177, 2,4-Difluoro-5-[4-trifluoromethyl-2-(4-trifluoromethyl-phenyl)-imidazo[1,5-a]pyrimidin-8-ylethynyl]-benzenesulfonamide]
278 to 280 °C	NS(=O)(=O)c1ccc(C#Cc2cnc3c(C(F)(F)F)cc(-c4ccc(C(F)(F)F)cc4)cn23)cc1 [Example 181, 4-[8-Trifluoromethyl-6-(4-trifluoromethyl-phenyl)-imidazo[1,2-a]pyridin-3-ylethynyl]-benzenesulfonamide]
157 to 159 °C	FC(F)(F)c1ccc(-c2cc(C(F)(F)F)n3ncc(C#Cc4cnc(Cl)nc4)c3n2)cc1 [Example 182, 3-(2-Chloro-pyrimidin-5-ylethynyl)-7-trifluoromethyl-5-(4-trifluoromethyl-phenyl)-pyrazolo[1,5-a]pyrimidine]
192 to 195 °C	FC(F)(F)c1ccc(-c2cc(C(F)(F)F)n3ncc(C#Cc4ccnc(Cl)n4)c3n2)cc1 [Example 183, 3-(2-Chloro-pyrimidin-4-ylethynyl)-7-trifluoromethyl-5-(4-trifluoromethyl-phenyl)-pyrazolo[1,5-a]pyrimidine]
200 to 202 °C	OCc1ccc(C#Cc2cnn3c(C(F)(F)F)cc(-c4ccc(C(F)(F)F)cc4)nc23)cc1 [Example 184, {4-[7-Trifluoromethyl-5-(4-trifluoromethyl-phenyl)-pyrazolo[1,5-a]pyrimidin-3-ylethynyl]-phenyl}-methanol]
203 to 204 °C (dec.)	CC(C)(C)OC(=O)NCCNS(=O)(=O)c1cc(C#Cc2cnn3c(C(F)F)cc(-c4ccc(C(F)(F)F)cc4)nc23)c(F)cc1F [Example 185, (2-{5-[7-Difluoromethyl-5-(4-trifluoromethyl-phenyl)-pyrazolo[1,5-a]pyrimidin-3-ylethynyl]-2,4-difluoro-benzenesulfonylamino}-ethyl)-carbamic acid tert-butyl ester]
245 °C	CCOc1cccc(-c2cc(C(F)F)n3ncc(C#Cc4ccc(S(N)(=O)=O)cc4)c3n2)c1 [Example 187, 4-[7-Difluoromethyl-5-(3-ethoxy-phenyl)-pyrazolo[1,5-a]pyrimidin-3-ylethynyl]-benzenesulfonamide]
216 °C	Nc1ccc(C#Cc2cnn3c(C(F)F)cc(-c4ccc(C(F)(F)F)cc4)nc23)cn1 [Example 188, 5-[7-Difluoromethyl-5-(4-trifluoromethyl-phenyl)-pyrazolo[1,5-a]pyrimidin-3-ylethynyl]-pyridin-2-ylamine]
218 °C	CCOc1cc(-c2cc(C(F)(F)F)n3ncc(C#Cc4ccc(N)nc4)c3n2)ccc1C(F)(F)F [Example 189, 5-[5-(3-Ethoxy-4-trifluoromethyl-phenyl)-7-trifluoromethyl-pyrazolo[1,5-a]pyrimidin-3-ylethynyl]-pyridin-2-ylamine]
169 to 170 °C	FC(F)(F)c1ccc(-c2cc(C(F)(F)F)c3ncc(C#Cc4cccnc4)n3c2)cc1 [Example 190, 3-Pyridin-3-ylethynyl-8-trifluoromethyl-6-(4-trifluoromethyl-phenyl)-imidazo[1,2-a]pyridine]
260 to 262 °C	Nc1ccc(C#Cc2cnc3c(C(F)(F)F)cc(-c4ccc(C(F)(F)F)cc4)cn23)cn1 [Example 191, 5-[8-Trifluoromethyl-6-(4-trifluoromethyl-phenyl)-imidazo[1,2-a]pyridin-3-ylethynyl]-pyridin-2-ylamine]
